In patent US7671085B2, “Non-steroidal farnesoid X receptor modulators and methods for the use thereof” (The Salk Institute for Biological Studies, priority 2002, dated 2010):
“Also recorded” adds a separate entry of the source.

biological target: T1, FXR (Homo sapiens, UniProt Q96RI1); assay: cell-based FXR transcription assay, FXR responsive promoter linked to luciferase reporter; conditions: cell-based FXR reporter assay; determined with Prism 3.0
T1 construct: using a full length FXR on a natural response element; expressed in transfected cells
T1 sequence (Q96RI1 1-486): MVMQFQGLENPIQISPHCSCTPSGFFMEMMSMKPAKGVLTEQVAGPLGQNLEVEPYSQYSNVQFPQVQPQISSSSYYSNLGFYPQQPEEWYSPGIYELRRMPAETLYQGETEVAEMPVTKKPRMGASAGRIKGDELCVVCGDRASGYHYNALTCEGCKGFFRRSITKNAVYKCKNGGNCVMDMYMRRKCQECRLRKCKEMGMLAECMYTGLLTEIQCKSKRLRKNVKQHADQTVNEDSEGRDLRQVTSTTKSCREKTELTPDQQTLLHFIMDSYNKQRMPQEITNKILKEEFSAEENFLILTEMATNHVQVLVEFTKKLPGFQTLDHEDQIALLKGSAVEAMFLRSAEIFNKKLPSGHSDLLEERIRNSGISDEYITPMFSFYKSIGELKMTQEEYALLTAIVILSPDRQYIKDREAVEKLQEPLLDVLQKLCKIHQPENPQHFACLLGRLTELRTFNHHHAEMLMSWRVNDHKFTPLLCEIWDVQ
Source text: In addition to ensuring that only cell permeable compounds were selected for further optimization, this approach allows for the detection of FXR activation in a natural system (i.e., correct folding of the protein and in the presence of a complete compliment of co-activators and co-repressors).
The feasibility of creating high throughput screens (HTS) for ORs was explored using FXR as a candidate orphan receptor (OR) with a known activator, chenodeoxycholic acid (CDCA) as a ligand. The screen is based on the co-transfection of a full-length receptor with the reporter vector containing a natural hormone response element under a minimal eukaryotic promoter. […] Using this 384-well format, the high throughput screening (HTS) approach to FXR as a candidate OR was employed. […] A central question in the feasibility studies is whether this library is suitable for screening for nuclear receptor ligands. Samples of this library were first reformatted into a 384-well format and then subjected to the FXR cell-based assays described above and assessed for FXR-mediated transcriptional activity. Cells were exposed to approximately 10 μM of sample for 18 hrs prior to washing and luciferase analysis.
EC50 values were determined with Prism 3.0 software via the activity of the subject compound in the previously described cell based assay.

Structure (SMILES)	EC50
COC(=O)/C=C/c1cccc(N(Cc2ccc3c(c2OC)OC(C)(C)C=C3)C(=O)C2CCCCC2)c1 [Compound 65]	3.58 nM
CCOC(=O)C=Cc1cccc(N(Cc2ccc(C=CC(=O)OC(C)(C)C)cc2)C(=O)C2CCCCC2)c1 [Compound 133]	256 nM

same assay, conditions: cell-based FXR reporter assay; footnote a not given

Structure (SMILES)	RE^a
COC(=O)/C=C/c1cccc(N(Cc2ccc3c(c2OC)OC(C)(C)C=C3)C(=O)C2CCCCC2)c1 [Compound 65]	0.40
COC(=O)C=Cc1cccc(N(Cc2ccc3c(c2OC)OC(C)(C)C=C3)C(=O)c2ccccc2)c1 [Compound 68]	0.83
COC(=O)/C=C/c1cccc(N(Cc2ccc3c(c2OC)OC(C)(C)C2C3C2(Cl)Cl)C(=O)c2ccccc2)c1 (stereo not drawn) [Compound 102]	0.64
COC(=O)C=Cc1cccc(N(Cc2ccc(C=CC(=O)O)cc2)C(=O)C2CCCCC2)c1 [Compound 104]	0.08
COC(=O)/C=C/c1cccc(N(Cc2ccc(/C=C/C(=O)OC(C)(C)C)cc2)C(=O)C2CCCCC2)c1 [Compound 105]	2.12
COC(=O)/C=C/c1cccc(N(Cc2ccccc2)C(=O)C2CCCCC2)c1 [Compound 110]	0.09
COC(=O)/C=C/c1cccc(N(Cc2ccc(Br)cc2)C(=O)C2CCCCC2)c1 [Compound 112]	0.28
COC(=O)C=Cc1cccc(N(Cc2cccc(Br)c2)C(=O)C2CCCCC2)c1 [Compound 113]	0.11
COC(=O)C=Cc1cccc(N(Cc2ccccc2Br)C(=O)C2CCCCC2)c1 [Compound 114]	0.11
COC(=O)/C=C/c1cccc(N(Cc2cccc(OC)c2)C(=O)C2CCCCC2)c1 [Compound 115]	0.11
COC(=O)/C=C/c1cccc(N(Cc2cccc(C(F)(F)F)c2)C(=O)C2CCCCC2)c1 [Compound 117]	0.12
COC(=O)/C=C/c1cccc(N(Cc2cc(OC)cc(OC)c2)C(=O)C2CCCCC2)c1 [Compound 118]	0.11
COC(=O)C=Cc1cccc(N(Cc2ccc(C=Cc3ccc(OC)cc3)cc2)C(=O)C2CCCCC2)c1 [Compound 122]	1.67
COC(=O)C=Cc1cccc(N(Cc2ccc(C=Cc3ccc(C(C)(C)C)cc3)cc2)C(=O)C2CCCCC2)c1 [Compound 123]	0.29
COC(=O)/C=C/c1cccc(N(Cc2ccc(-c3ccccc3)cc2)C(=O)C2CCCCC2)c1 [Compound 124]	0.71
COC(=O)/C=C/c1cccc(N(Cc2ccc(-c3ccc(SC)cc3)cc2)C(=O)C2CCCCC2)c1 [Compound 125]	1.74
COC(=O)/C=C/c1cccc(N(Cc2ccc(-c3cc(Cl)cc(Cl)c3)cc2)C(=O)C2CCCCC2)c1 [Compound 126]	0.95

Structure (SMILES)	RE^a
COC(=O)/C=C/c1cccc(N(Cc2ccc(-c3cccc(C(C)=O)c3)cc2)C(=O)C2CCCCC2)c1 [Compound 127]	1.30
COC(=O)C=Cc1cccc(N(Cc2ccc(-c3ccc(C)s3)cc2)C(=O)C2CCCCC2)c1 [Compound 128]	1.78
COC(=O)C=Cc1cccc(N(Cc2ccc(-c3ccc(C(C)=O)s3)cc2)C(=O)C2CCCCC2)c1 [Compound 129]	1.48
COC(=O)/C=C/c1cccc(NC(=O)C2CCCCC2)c1 [Compound 132]	0.09
CCOC(=O)C=Cc1cccc(N(Cc2ccc(C=CC(=O)OC(C)(C)C)cc2)C(=O)C2CCCCC2)c1 [Compound 133]	2.07
CC(C)(C)OC(=O)C=Cc1ccc(CN(C(=O)C2CCCCC2)c2cccc(C=CC(=O)OC(C)(C)C)c2)cc1 [Compound 134]	1.06
CC(C)(C)OC(=O)C=Cc1ccc(CN(C(=O)C2CCCCC2)c2cccc(C=CC(N)=O)c2)cc1 [Compound 135]	0.50
COCC=Cc1cccc(N(Cc2ccc(C=CC(=O)OC(C)(C)C)cc2)C(=O)C2CCCCC2)c1 [Compound 136]	1.68
CCOCC=Cc1cccc(N(Cc2ccc(C=CC(=O)OC(C)(C)C)cc2)C(=O)C2CCCCC2)c1 [Compound 137]	1.74
CC(C)(C)OC(=O)C=Cc1ccc(CN(C(=O)C2CCCCC2)c2cccc(C=CCOc3ccccc3)c2)cc1 [Compound 138]	0.45
COC(=O)CCc1cccc(N(Cc2ccc(/C=C/C(=O)OC(C)(C)C)cc2)C(=O)C2CCCCC2)c1 [Compound 139]	RE^a = 1.38
COC(=O)C=Cc1cccc(N(Cc2ccc(C=CC(=O)OC(C)(C)C)cc2)C(=O)C2CC2)c1 [Compound 140]	1.68
COC(=O)C=Cc1cccc(N(Cc2ccc(C=CC(=O)OC(C)(C)C)cc2)C(=O)C2CCC2)c1 [Compound 141]	1.84
COC(=O)C=Cc1cccc(N(Cc2ccc(C=CC(=O)OC(C)(C)C)cc2)C(=O)C2CCCC2)c1 [Compound 142]	2.16
COC(=O)/C=C/c1cccc(N(Cc2ccc(/C=C/C(=O)OC(C)(C)C)cc2)C(=O)c2ccccc2)c1 [Compound 143]	1.96
COC(=O)/C=C/c1cccc(N(Cc2ccc(/C=C/C(=O)OC(C)(C)C)cc2)C(=O)c2ccco2)c1 [Compound 144]	1.93
COC(=O)/C=C/c1cccc(N(Cc2ccc(/C=C/C(=O)OC(C)(C)C)cc2)C(=O)NC(C)C)c1 [Compound 145]	1.96

same assay, conditions: cell-based reporter assay, SAR discussion

Structure (SMILES)	FXR activation, in words
COC(=O)/C=C/c1cccc(N(Cc2ccc3c(c2OC)OC(C)(C)[C@@H](O)[C@H]3O)C(=O)c2ccccc2)c1 (relative stereo) [Compound 93]	did not improve the activity
COc1c(CN(C(=O)C2CC2)c2ccccc2)ccc2c1OC(C)(C)C=C2 [Compound 26]	among the most active at this stage
COc1c(CN(C(=O)C2CCCCC2)c2ccccc2)ccc2c1OC(C)(C)C=C2 [Compound 27]	among the most active at this stage
COC(=O)/C=C/c1cccc(N(Cc2ccc3c(c2OC)OC(C)(C)C=C3)C(=O)C2CC2)c1 [Compound 29]	substantially better activator of FXR than compound 26; also recorded: capable of activating FXR to a significant extent
CCOC(=O)/C=C/c1cccc(N(Cc2ccc3c(c2OC)OC(C)(C)C=C3)C(=O)C2CC2)c1 [Compound 30]	inactive
COC/C=C/c1cccc(N(Cc2ccc3c(c2OC)OC(C)(C)C=C3)C(=O)C2CC2)c1 [Compound 33]	capable of activating FXR to a significant extent
COc1c(CN(C(=O)C2CC2)c2cccc(/C=C/C#N)c2)ccc2c1OC(C)(C)C=C2 [Compound 34]	inactive
CNC(=O)/C=C/c1cccc(N(Cc2ccc3c(c2OC)OC(C)(C)C=C3)C(=O)C2CC2)c1 [Compound 38]	inactive
COC(=O)/C=C/c1ccc(N(Cc2ccc3c(c2OC)OC(C)(C)C=C3)C(=O)C2CC2)cc1 [Compound 53]	does not activate FXR
COC(=O)/C=C/c1cccc(N(Cc2ccccc2)Cc2ccc3c(c2OC)OC(C)(C)C=C3)c1 [Compound 78]	inactive
COC(=O)/C=C/c1cccc(N(C)Cc2ccc3c(c2OC)OC(C)(C)C=C3)c1 [Compound 79]	inactive
COC(=O)/C=C/c1cccc(N(Cc2ccc3c(c2OC)OC(C)(C)C=C3)S(=O)(=O)c2ccc(C)cc2)c1 [Compound 82]	inactive
COC(=O)/C=C/c1cccc(N(Cc2ccc3c(c2OC)OC(C)(C)C=C3)C(=S)C2CC2)c1 [Compound 83]	inactive
COC(=O)/C=C/c1cccc(N(Cc2ccc3c(c2OC)OC(C)(C)C=C3)C(=S)NCc2ccccc2)c1 [Compound 84]	inactive
COC(=O)/C=C/c1cccc(N(Cc2ccc3c(c2OC)OC(C)(C)C=C3C(=O)O)C(=O)c2ccccc2)c1 [Compound 86]	did not improve the activity
COC(=O)C=Cc1cccc(N(Cc2ccc3c(c2OC)OC(C)(C)C(O)C3O)C(=O)c2ccccc2)c1 (stereo not drawn) [Compound 94]	did not improve the activity
COC(=O)C=Cc1cccc(N(Cc2ccc3c(c2OC)OC(C)(C)C(O)C3Sc2ccccc2)C(=O)c2ccccc2)c1 (stereo not drawn) [Compound 98]	did not improve the activity
COC(=O)C=Cc1cccc(N(Cc2ccc3c(c2OC)OC(C)(C)C(O)C3N2CCCCC2)C(=O)c2ccccc2)c1 (stereo not drawn) [Compound 100]	did not improve the activity
COC(=O)/C=C/c1cccc(N(Cc2cccc(/C=C/C(=O)OC(C)(C)C)c2)C(=O)C2CCCCC2)c1 [Compound 107]	only micromolar potency
COC(=O)/C=C/c1cccc(N(Cc2ccccc2/C=C/C(=O)OC(C)(C)C)C(=O)C2CCCCC2)c1 [Compound 109]	only micromolar potency
COC(=O)/C=C/c1cccc(N(Cc2ccc(-c3ccc(SC)cc3)cc2)C(=O)C2CCCCC2)c1 [Compound 125]	excellent activity
CCOC(=O)C=Cc1cccc(N(Cc2ccc(C=CC(=O)OC(C)(C)C)cc2)C(=O)C2CCCCC2)c1 [Compound 133]	marked decline in potency
CC(C)(C)OC(=O)C=Cc1ccc(CN(C(=O)C2CCCCC2)c2cccc(C=CC(=O)OC(C)(C)C)c2)cc1 [Compound 134]	marked decline in potency
CC(C)(C)OC(=O)C=Cc1ccc(CN(C(=O)C2CCCCC2)c2cccc(C=CC(N)=O)c2)cc1 [Compound 135]	marked decline in potency
COC(=O)CCc1cccc(N(Cc2ccc(/C=C/C(=O)OC(C)(C)C)cc2)C(=O)C2CCCCC2)c1 [Compound 139]	only a two-fold decrease in potency
COC(=O)C=Cc1cccc(N(Cc2ccc(C=CC(=O)OC(C)(C)C)cc2)C(=O)C2CCC2)c1 [Compound 141]	excellent activity
COC(=O)C=Cc1cccc(N(Cc2ccc(C=CC(=O)OC(C)(C)C)cc2)C(=O)C2CCCC2)c1 [Compound 142]	excellent activity
